Measurements from publication PMC7377239, “Cardiovascular Effects of Polychlorinated Biphenyls and Their Major Metabolites” (Environmental Health Perspectives, 2020).
Structures can show the parent of a compound that is named as a salt. Where two headings read alike, the source gives them in different places.

Key:
HUVECs = test: Tube formation (tubulogenesis) assay in HUVECs, 18 h; format: cell-based, human; conditions: Homo sapiens, HUVEC, 18 h, HUVECs; for activity at 0.1 µM: 0.10 µM; for minimal effective concentration: top concentration 100.00 µM
Outline: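 HUVECs (passage 1–5) seeded on reduced-growth-factor basement membrane and exposed to compounds overnight at 37°C, 5% CO2, in 2× maintenance medium with 12.5 ng/mL VEGF; 0.5% DMSO vehicle. Calcein AM-stained tube networks imaged and analysed; vehicle-normalized readouts fit to four-parameter logistic, POD set at one SD of vehicle means.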

[1] = system: iCell endothelial cells (human iPSC-derived ECs); test: High-content imaging cytotoxicity in iCell endothelial cells, 24 h; format: cell-based; conditions: Homo sapiens, Endothelial cell, iPSC-EC, 24 hr; for viability at 0.1 µM / activity at 0.1 µM: 0.10 µM; for minimal effective concentration: top concentration 100.00 µM
Outline: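 Readouts were vehicle-normalised and fitted to a four-parameter logistic model. POD was set at one SD beyond 0.5% DMSO control means, and 100 µM was assigned when no response was seen. Cells were monolayers of iCell endothelial cells imaged after 24 h compound exposure using nuclear, mitochondrial and calcein dyes.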

[2] = 0.00 µM = 100.00, read-out: huvec.mtl.18hr
[3] = 0.00 µM = 100.00, read-out: huvec.tlps.18hr
[4] = 0.00 µM = 100.00, read-out: huvec.tta.18hr
[5] = 0.00 µM = 100.00, read-out: huvec.ttl.18hr
[6] = 0.00 µM control = 100.00, read-out: endo.cyto.24hr
[7] = 0.00 µM control = 100.00, read-out: endo.mito.24hr
[8] = 0.00 µM control = 100.00, read-out: endo.mitoint.24hr
[9] = 0.00 µM control = 100.00, read-out: endo.nma.24hr
[10] = 0.00 µM control = 100.00, read-out: endo.tc.24hrs
[11] = read-out: endo.mitoint.24hr POD

Oc1ccccc1-c1ccc(Cl)cc1 [2'-OH PCB3]
activity at 0.01 µM (HUVECs; [2]): 96% | activity at 0.01 µM (HUVECs; [3]): 85.8% | activity at 0.01 µM (HUVECs; [4]): 84% | activity at 0.01 µM (HUVECs; [5]): 89.1% | activity at 0.1 µM (HUVECs; [2]): 77.3% | activity at 0.1 µM (HUVECs; [3]): 49.3% | activity at 0.1 µM (HUVECs; [4]): 42.9% | activity at 0.1 µM (HUVECs; [5]): 47.4% | activity at 1 µM (HUVECs; [2]): 95.4% | activity at 1 µM (HUVECs; [3]): 65% | activity at 1 µM (HUVECs; [4]): 71.9% | activity at 1 µM (HUVECs; [5]): 75% | activity at 10 µM (HUVECs; [2]): 92.4% | activity at 10 µM (HUVECs; [3]): 77.5% | activity at 10 µM (HUVECs; [4]): 65.8% | activity at 10 µM (HUVECs; [5]): 69.6% | activity at 100 µM (HUVECs; [2]): 73.9% | activity at 100 µM (HUVECs; [3]): 35.5% | activity at 100 µM (HUVECs; [4]): 64% | activity at 100 µM (HUVECs; [5]): 49.6% | minimal effective concentration (HUVECs; read-out: huvec.mtl.18hr POD): 100 µM | minimal effective concentration (HUVECs; read-out: huvec.tlps.18hr POD): 0.57 µM | minimal effective concentration (HUVECs; read-out: huvec.tta.18hr POD): 100 µM | minimal effective concentration (HUVECs; read-out: huvec.ttl.18hr POD): 100 µM | viability at 0.01 µM [1, 6]: 99.2% | activity at 0.01 µM [1, 7]: 99.4% | activity at 0.01 µM [1, 8]: 117% | activity at 0.01 µM [1, 9]: 98.3% | viability at 0.01 µM [1, 10]: 99.2% | viability at 0.1 µM [1, 6]: 96.5% | activity at 0.1 µM [1, 7]: 97% | activity at 0.1 µM [1, 8]: 101% | activity at 0.1 µM [1, 9]: 98.8% | viability at 0.1 µM [1, 10]: 96.5% | viability at 1 µM [1, 6]: 100% | activity at 1 µM [1, 7]: 100% | activity at 1 µM [1, 8]: 108% | activity at 1 µM [1, 9]: 96.4% | viability at 1 µM [1, 10]: 100% | viability at 10 µM [1, 6]: 103% | activity at 10 µM [1, 7]: 103% | activity at 10 µM [1, 8]: 124% | activity at 10 µM [1, 9]: 97% | viability at 10 µM [1, 10]: 103% | viability at 100 µM [1, 6]: 57.8% | activity at 100 µM [1, 7]: 61.3% | activity at 100 µM [1, 8]: 87.3% | activity at 100 µM [1, 9]: 89.5% | viability at 100 µM [1, 10]: 87% | minimal effective concentration ([1]; read-out: endo.cyto.24hr POD): 44.3 µM | minimal effective concentration ([1]; read-out: endo.mito.24hr POD): 44.3 µM | minimal effective concentration [1, 11]: 100 µM | minimal effective concentration ([1]; read-out: endo.nma.24hr POD): 1.82 µM | minimal effective concentration ([1]; read-out: endo.tc.24hrs POD): 68.2 µM

O=S(=O)(O)Oc1ccc(-c2cccc(Cl)c2)cc1Cl [4-yl PCB 11 sulfate]
activity at 0.01 µM (HUVECs; [2]): 96.8% | activity at 0.01 µM (HUVECs; [3]): 110% | activity at 0.01 µM (HUVECs; [4]): 98.3% | activity at 0.01 µM (HUVECs; [5]): 87.1% | activity at 0.1 µM (HUVECs; [2]): 112% | activity at 0.1 µM (HUVECs; [3]): 133% | activity at 0.1 µM (HUVECs; [4]): 109% | activity at 0.1 µM (HUVECs; [5]): 98.7% | activity at 1 µM (HUVECs; [2]): 108% | activity at 1 µM (HUVECs; [3]): 110% | activity at 1 µM (HUVECs; [4]): 123% | activity at 1 µM (HUVECs; [5]): 113% | activity at 10 µM (HUVECs; [2]): 95% | activity at 10 µM (HUVECs; [3]): 103% | activity at 10 µM (HUVECs; [4]): 84.6% | activity at 10 µM (HUVECs; [5]): 77% | activity at 100 µM (HUVECs; [2]): 52.2% | activity at 100 µM (HUVECs; [3]): 35.8% | activity at 100 µM (HUVECs; [4]): 50.9% | activity at 100 µM (HUVECs; [5]): 56.1% | minimal effective concentration (HUVECs; read-out: huvec.mtl.18hr POD): 14.3 µM | minimal effective concentration (HUVECs; read-out: huvec.tlps.18hr POD): 27.2 µM | minimal effective concentration (HUVECs; read-out: huvec.tta.18hr POD): 100 µM | minimal effective concentration (HUVECs; read-out: huvec.ttl.18hr POD): 100 µM | viability at 0.01 µM [1, 6]: 96.1% | activity at 0.01 µM [1, 7]: 96.2% | activity at 0.01 µM [1, 8]: 99.7% | activity at 0.01 µM [1, 9]: 103% | viability at 0.01 µM [1, 10]: 96.1% | viability at 0.1 µM [1, 6]: 102% | activity at 0.1 µM [1, 7]: 101% | activity at 0.1 µM [1, 8]: 90.5% | activity at 0.1 µM [1, 9]: 102% | viability at 0.1 µM [1, 10]: 102% | viability at 1 µM [1, 6]: 98% | activity at 1 µM [1, 7]: 97.8% | activity at 1 µM [1, 8]: 90.8% | activity at 1 µM [1, 9]: 103% | viability at 1 µM [1, 10]: 98% | viability at 10 µM [1, 6]: 104% | activity at 10 µM [1, 7]: 104% | activity at 10 µM [1, 8]: 87.3% | activity at 10 µM [1, 9]: 98.8% | viability at 10 µM [1, 10]: 104% | viability at 100 µM [1, 6]: 98.5% | activity at 100 µM [1, 7]: 98.6% | activity at 100 µM [1, 8]: 84.2% | activity at 100 µM [1, 9]: 99.3% | viability at 100 µM [1, 10]: 98.5% | minimal effective concentration ([1]; read-out: endo.cyto.24hr POD): 100 µM | minimal effective concentration ([1]; read-out: endo.mito.24hr POD): 100 µM | minimal effective concentration [1, 11]: 100 µM | minimal effective concentration ([1]; read-out: endo.nma.24hr POD): 100 µM | minimal effective concentration ([1]; read-out: endo.tc.24hrs POD): 100 µM
